Laboratory results reported in ChEMBL document CHEMBL2321869, “Ion channels as therapeutic targets: a drug discovery perspective” (J Med Chem, 2013).

Experiments:
[1] = biological target: P2X2/P2X3 heterotrimeric receptor (Homo sapiens, UniProt P56373+Q9UBL9); test: Antagonist activity at human P2X2/3 receptor; assay type: protein-complex assay
[2] = biological target: Voltage-gated potassium channel KCNC1 (Rattus norvegicus, UniProt P25122); test: Inhibition of rat voltage-gated K channel 3.1 expressed in CHO cells by patch clamp assay; assay type: cell-based
[3] = Agonist activity at AMPA receptor in rat hippocampal neurons by patch clamp technique; assay type: tissue-based; details: Hippocampus
Rattus norvegicus [4] = organism: Rattus norvegicus; test: Selectivity ratio of EC50 for AMPA receptor in rat DRG neurons to EC50 for AMPA receptor in rat hippocampal neurons; assay type: tissue-based; details: Hippocampus
[5] = Blockade of ASIC (unknown origin); set-up: species or system Homo sapiens
[6] = Agonist activity at AMPA receptor in rat DRG neurons by patch clamp technique; details: DRG neuron
Rattus norvegicus [7] = organism: Rattus norvegicus; test: Selectivity ratio of EC50 for AMPA receptor in rat hippocampal neurons to EC50 for AMPA receptor in rat DRG neurons; assay type: tissue-based; details: Hippocampus
[8] = biological target: T1, Potassium channel subfamily K member 2 (Homo sapiens, UniProt O95069); test: Inhibition of TREK-1 (unknown origin)
[9] = biological target: Inward rectifier potassium channel 4 (Homo sapiens, UniProt P48050); test: Inhibition of Kir2.3 (unknown origin)
[10] = biological target: T1, Potassium channel subfamily K member 2; test: Inhibition of human TREK-1 expressed in HEK293 cells by patch-clamp technique; assay type: cell-based
[11] = biological target: Potassium channel subfamily K member 3 (Homo sapiens, UniProt O14649); test: Inhibition of TASK-1 (unknown origin)
[12] = biological target: T2, Glutamate receptor ionotropic, kainate 1 (Homo sapiens, UniProt P39086); test: Inhibition of GluK1 receptor (unknown origin)
[13] = Inhibition of AMPA receptor (unknown origin); set-up: species or system Homo sapiens
[14] = biological target: T2, Glutamate receptor ionotropic, kainate 1; test: Agonist activity at GluK1 (unknown origin)
[15] = biological target: T3, Gamma-aminobutyric acid receptor subunit alpha-2 (Homo sapiens) (UniProt P47869); test: Positive allosteric modulation of GABAA alpha2 (unknown origin) relative to control
T3 sequence (whole entry): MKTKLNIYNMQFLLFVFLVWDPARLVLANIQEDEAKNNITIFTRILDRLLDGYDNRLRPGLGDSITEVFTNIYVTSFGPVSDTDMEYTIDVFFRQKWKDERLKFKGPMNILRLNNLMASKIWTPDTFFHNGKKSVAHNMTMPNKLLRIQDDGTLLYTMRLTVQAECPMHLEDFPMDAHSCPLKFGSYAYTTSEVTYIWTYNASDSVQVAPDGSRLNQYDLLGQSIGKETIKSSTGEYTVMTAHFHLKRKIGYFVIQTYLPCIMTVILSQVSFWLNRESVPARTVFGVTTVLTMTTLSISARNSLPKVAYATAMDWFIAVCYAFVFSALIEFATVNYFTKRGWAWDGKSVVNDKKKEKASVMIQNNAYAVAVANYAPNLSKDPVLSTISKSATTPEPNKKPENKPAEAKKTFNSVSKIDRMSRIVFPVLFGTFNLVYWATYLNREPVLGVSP

[16] = biological target: T4, Gamma-aminobutyric acid receptor subunit alpha-3 (Homo sapiens, UniProt P34903); test: Positive allosteric modulation of GABAA alpha3 (unknown origin)
T4 sequence (P34903 whole entry): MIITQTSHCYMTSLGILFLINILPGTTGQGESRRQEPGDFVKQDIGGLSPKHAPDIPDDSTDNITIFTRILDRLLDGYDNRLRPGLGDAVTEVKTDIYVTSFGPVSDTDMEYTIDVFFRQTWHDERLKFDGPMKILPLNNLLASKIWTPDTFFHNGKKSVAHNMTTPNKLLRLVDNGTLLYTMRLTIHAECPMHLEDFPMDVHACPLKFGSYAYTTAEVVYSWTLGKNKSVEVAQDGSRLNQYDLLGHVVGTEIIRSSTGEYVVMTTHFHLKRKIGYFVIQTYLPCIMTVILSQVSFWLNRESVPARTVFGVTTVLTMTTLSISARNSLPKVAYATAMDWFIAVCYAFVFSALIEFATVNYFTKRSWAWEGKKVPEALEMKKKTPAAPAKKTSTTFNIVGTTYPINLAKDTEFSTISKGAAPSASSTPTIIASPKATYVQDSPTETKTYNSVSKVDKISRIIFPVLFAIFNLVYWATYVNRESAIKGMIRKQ

[17] = biological target: Gamma-aminobutyric acid receptor subunit alpha-5 (Homo sapiens) (UniProt P31644); test: Positive allosteric modulation of GABAA alpha5 (unknown origin) relative to control
[18] = biological target: T5, Gamma-aminobutyric acid receptor subunit alpha-5 (Homo sapiens, UniProt P31644); test: Positive allosteric modulation of GABAA alpha5 (unknown origin)
T5 sequence (P31644 whole entry): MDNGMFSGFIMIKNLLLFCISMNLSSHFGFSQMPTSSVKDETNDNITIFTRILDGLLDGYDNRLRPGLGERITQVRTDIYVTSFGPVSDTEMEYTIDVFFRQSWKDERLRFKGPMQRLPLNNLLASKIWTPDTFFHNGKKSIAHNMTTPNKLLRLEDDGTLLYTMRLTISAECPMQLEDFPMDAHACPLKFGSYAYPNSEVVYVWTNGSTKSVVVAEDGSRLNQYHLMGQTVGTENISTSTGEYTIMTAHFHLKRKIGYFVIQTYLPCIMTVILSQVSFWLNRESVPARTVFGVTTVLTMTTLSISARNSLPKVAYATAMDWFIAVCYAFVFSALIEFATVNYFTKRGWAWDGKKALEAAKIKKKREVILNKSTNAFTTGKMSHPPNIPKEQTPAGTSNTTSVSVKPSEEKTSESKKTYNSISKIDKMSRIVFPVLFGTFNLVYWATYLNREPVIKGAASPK

[19] = biological target: T6, Gamma-aminobutyric acid receptor subunit alpha-2 (Homo sapiens, UniProt P47869); test: Positive allosteric modulation of GABAA alpha2 (unknown origin)
T6 sequence (P47869 whole entry): T3 sequence (whole entry)

[20] = biological target: Gamma-aminobutyric acid receptor subunit alpha-3 (Homo sapiens) (UniProt P34903); test: Positive allosteric modulation of GABAA alpha3 (unknown origin) relative to control
[21] = biological target: Acid-sensing ion channel 3 (Rattus norvegicus, UniProt O35240); test: Inhibition of ASIC3 in rat DRG neurons
[22] = biological target: T7, Gamma-aminobutyric acid receptor subunit alpha-1 (Homo sapiens, UniProt P14867); test: Positive allosteric modulation of GABAA alpha1 (unknown origin)
T7 sequence (P14867 whole entry): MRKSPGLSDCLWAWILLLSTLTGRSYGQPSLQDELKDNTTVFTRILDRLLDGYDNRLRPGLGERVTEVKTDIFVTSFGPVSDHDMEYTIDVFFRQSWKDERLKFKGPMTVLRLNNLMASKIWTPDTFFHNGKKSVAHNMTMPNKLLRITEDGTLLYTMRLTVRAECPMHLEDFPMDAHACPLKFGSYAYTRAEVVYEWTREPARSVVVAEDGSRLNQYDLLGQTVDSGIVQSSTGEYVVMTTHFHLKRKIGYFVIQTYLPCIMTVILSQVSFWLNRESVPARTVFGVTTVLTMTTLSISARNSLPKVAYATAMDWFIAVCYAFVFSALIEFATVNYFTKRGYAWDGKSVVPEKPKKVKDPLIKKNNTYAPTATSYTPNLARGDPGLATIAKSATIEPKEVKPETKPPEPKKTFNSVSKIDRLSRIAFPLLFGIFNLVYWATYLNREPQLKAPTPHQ

Homo sapiens [23] = organism: Homo sapiens; test: Selectivity ratio of IC50 for human voltage-gated Na channel 1.1 to IC50 for human voltage-gated Na channel 1.8
Homo sapiens [24] = organism: Homo sapiens; test: Selectivity ratio of IC50 for human voltage-gated Na channel 1.7 to IC50 for human voltage-gated Na channel 1.8
Homo sapiens [25] = organism: Homo sapiens; test: Selectivity ratio of IC50 for human voltage-gated Na channel 1.5 to IC50 for human voltage-gated Na channel 1.8
[26] = biological target: Gamma-aminobutyric acid receptor subunit alpha-1 (Homo sapiens) (UniProt P14867); test: Positive allosteric modulation of GABAA alpha1 (unknown origin) relative to control
[27] = Selectivity ratio of EC50 for mouse voltage-gated K channel 1.3 to EC50 for rat voltage-gated K channel 1.2
Mus musculus [28] = organism: Mus musculus; test: Selectivity ratio of EC50 for mouse voltage-gated K channel 1.3 to EC50 for mouse voltage-gated K channel 1.7
[29] = Selectivity ratio of EC50 for mouse voltage-gated K channel 1.3 to EC50 for human voltage-gated K channel 1.4
Mus musculus [30] = organism: Mus musculus; test: Selectivity ratio of EC50 for mouse voltage-gated K channel 1.3 to EC50 for mouse voltage-gated K channel 1.1
[31] = biological target: Small conductance calcium-activated potassium channel protein 3 (Homo sapiens, UniProt Q9UGI6); test: Inhibition of human Kca 2.3 expressed in HEK293 cells by patch clamp technique; assay type: cell-based
[32] = biological target: Inward rectifier potassium channel 2 (Mus musculus, UniProt P35561); test: Inhibition of mouse Kir2.1 expressed in HEK293 cells by patch clamp technique; assay type: cell-based
[33] = biological target: Neuronal acetylcholine receptor; alpha4/beta2 (Homo sapiens, UniProt P17787+P43681); test: Agonist activity at human alpha4beta2 nAChR expressed in HEK293 cells incubated for 5 mins measured every second for 1 mins followed by every 5 secs for 4 mins by calcium flux assay; assay type: cell-based
[34] = biological target: Transient receptor potential cation channel subfamily V member 4 (Homo sapiens, UniProt Q9HBA0); test: Inhibition of TRPV4 (unknown origin)
Chain of Transient receptor potential cation channel subfamily V member 4 (Q9HBA0 whole entry): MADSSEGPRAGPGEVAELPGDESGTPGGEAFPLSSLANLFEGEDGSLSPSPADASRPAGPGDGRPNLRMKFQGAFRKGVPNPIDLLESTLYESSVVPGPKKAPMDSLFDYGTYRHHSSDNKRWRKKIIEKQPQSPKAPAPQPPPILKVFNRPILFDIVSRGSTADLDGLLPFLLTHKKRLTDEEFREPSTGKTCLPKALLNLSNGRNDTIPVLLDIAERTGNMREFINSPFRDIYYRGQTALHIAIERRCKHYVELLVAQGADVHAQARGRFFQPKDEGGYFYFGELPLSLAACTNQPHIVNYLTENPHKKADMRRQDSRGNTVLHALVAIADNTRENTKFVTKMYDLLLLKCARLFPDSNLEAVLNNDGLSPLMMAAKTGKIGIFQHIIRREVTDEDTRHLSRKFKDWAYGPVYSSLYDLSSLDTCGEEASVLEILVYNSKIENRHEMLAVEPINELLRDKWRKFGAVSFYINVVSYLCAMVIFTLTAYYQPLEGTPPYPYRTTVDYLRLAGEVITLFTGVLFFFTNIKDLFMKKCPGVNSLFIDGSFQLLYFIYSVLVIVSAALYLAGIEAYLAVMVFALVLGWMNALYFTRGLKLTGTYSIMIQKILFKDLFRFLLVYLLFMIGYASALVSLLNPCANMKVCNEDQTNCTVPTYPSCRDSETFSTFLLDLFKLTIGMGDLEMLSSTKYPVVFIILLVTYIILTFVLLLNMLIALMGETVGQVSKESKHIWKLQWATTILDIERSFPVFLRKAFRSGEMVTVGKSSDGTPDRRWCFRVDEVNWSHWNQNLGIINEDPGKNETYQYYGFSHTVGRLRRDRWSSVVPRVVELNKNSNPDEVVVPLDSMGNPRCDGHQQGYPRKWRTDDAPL

Chain of Voltage-gated potassium channel KCNC1 (P25122 whole entry): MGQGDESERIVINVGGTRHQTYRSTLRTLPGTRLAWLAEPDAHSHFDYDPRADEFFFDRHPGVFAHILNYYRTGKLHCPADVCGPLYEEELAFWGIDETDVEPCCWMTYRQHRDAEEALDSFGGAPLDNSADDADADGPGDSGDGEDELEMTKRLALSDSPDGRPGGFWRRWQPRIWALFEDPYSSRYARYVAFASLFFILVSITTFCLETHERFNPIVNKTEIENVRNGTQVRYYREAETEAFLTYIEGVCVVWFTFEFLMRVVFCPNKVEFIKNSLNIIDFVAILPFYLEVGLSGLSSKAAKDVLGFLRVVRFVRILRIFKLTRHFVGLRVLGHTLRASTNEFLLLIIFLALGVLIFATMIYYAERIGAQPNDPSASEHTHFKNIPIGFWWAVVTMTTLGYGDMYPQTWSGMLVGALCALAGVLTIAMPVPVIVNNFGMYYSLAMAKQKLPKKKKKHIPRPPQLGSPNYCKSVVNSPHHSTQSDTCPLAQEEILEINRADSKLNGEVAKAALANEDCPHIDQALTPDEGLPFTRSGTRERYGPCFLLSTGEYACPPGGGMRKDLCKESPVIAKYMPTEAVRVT
T1 sequence (O95069 whole entry): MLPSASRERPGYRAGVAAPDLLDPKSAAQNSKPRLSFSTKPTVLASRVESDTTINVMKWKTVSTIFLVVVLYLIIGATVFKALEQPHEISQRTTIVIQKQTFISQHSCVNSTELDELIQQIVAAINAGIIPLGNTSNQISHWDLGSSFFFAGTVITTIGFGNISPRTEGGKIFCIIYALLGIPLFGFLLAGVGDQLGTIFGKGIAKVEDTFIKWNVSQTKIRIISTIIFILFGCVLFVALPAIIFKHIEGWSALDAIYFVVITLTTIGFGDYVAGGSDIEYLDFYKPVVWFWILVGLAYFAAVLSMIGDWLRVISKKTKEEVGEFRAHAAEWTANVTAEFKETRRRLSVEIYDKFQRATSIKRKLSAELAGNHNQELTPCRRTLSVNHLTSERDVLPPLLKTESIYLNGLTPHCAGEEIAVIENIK
Chain of P2X2/P2X3 heterotrimeric receptor (Q9UBL9 whole entry): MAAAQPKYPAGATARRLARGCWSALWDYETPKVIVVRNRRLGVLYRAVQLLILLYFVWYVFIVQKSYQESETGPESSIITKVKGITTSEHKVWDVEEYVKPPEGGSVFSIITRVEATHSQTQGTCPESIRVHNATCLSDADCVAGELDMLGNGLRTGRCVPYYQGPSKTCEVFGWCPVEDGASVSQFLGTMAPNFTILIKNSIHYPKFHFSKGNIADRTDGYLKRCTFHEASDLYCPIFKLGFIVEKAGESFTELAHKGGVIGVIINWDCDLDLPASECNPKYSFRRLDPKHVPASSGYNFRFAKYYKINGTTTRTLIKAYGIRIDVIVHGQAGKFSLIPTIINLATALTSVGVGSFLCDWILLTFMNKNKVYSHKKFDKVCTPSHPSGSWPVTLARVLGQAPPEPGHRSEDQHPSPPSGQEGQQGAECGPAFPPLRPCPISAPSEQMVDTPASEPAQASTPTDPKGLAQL
Chain of P2X2/P2X3 heterotrimeric receptor (P56373 whole entry): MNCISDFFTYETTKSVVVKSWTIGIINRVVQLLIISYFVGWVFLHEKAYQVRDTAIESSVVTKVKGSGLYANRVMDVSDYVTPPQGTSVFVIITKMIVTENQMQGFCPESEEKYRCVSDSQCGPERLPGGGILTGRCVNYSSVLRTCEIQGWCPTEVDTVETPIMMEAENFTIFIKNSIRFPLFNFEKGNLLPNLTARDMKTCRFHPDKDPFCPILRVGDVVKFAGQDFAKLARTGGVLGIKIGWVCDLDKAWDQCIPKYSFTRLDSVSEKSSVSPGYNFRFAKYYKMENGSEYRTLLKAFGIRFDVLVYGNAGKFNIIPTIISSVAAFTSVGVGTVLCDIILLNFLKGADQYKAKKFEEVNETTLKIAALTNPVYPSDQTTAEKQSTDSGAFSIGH
T2 sequence (P39086 whole entry): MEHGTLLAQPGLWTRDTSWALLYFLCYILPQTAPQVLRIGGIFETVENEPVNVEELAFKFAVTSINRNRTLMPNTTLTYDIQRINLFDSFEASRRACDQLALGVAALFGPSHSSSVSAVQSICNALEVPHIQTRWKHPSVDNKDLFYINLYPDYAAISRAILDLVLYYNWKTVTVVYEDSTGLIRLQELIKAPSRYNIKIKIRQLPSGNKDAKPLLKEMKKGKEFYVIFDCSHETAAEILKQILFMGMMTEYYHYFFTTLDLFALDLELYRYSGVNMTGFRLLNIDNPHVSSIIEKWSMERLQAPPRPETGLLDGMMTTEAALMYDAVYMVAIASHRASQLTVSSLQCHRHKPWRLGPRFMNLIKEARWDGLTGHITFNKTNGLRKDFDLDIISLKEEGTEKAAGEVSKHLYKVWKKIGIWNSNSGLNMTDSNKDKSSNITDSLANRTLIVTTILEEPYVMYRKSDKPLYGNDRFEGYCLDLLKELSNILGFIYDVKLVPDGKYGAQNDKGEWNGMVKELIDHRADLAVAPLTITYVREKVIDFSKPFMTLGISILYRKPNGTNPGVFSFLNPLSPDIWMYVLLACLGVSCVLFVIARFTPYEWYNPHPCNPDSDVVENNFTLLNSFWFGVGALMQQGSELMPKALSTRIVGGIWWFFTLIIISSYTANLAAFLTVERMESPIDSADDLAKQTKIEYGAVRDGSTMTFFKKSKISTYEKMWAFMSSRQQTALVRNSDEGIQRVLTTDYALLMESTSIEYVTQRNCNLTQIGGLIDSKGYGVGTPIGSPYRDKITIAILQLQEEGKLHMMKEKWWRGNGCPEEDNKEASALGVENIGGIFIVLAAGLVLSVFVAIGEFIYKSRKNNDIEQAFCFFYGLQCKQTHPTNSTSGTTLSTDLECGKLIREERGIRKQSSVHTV
Chain of Inward rectifier potassium channel 2 (P35561 whole entry): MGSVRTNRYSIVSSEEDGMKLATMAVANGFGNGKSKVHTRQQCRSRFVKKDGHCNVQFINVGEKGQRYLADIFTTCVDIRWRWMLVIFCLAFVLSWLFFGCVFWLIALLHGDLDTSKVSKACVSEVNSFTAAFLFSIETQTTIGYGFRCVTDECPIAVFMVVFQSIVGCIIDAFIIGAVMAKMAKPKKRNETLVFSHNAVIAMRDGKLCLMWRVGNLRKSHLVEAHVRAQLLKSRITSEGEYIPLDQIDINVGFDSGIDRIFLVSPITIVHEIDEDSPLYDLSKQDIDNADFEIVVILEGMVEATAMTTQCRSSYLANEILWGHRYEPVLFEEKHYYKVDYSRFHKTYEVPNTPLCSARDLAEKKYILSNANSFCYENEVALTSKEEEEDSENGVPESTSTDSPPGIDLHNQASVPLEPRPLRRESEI
Chain of Small conductance calcium-activated potassium channel protein 3 (Q9UGI6 whole entry): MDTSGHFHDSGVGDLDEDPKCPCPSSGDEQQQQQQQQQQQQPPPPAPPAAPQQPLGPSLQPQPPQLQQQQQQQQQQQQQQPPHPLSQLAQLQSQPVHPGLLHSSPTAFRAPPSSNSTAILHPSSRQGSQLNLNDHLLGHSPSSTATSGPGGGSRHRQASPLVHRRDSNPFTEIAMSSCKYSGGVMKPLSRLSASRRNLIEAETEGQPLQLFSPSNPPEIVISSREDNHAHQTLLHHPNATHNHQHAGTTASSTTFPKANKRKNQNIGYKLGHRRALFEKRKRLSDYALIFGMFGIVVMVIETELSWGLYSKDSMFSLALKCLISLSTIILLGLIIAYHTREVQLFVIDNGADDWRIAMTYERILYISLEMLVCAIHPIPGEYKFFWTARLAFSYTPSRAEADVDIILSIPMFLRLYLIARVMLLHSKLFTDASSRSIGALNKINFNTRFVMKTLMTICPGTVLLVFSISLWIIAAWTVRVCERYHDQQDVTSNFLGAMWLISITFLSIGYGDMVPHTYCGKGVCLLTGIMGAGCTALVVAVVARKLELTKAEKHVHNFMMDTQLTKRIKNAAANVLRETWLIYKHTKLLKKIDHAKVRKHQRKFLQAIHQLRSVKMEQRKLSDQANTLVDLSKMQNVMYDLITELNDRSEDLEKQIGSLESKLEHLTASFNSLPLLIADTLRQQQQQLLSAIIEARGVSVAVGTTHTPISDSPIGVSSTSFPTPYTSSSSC

SMILES: Cc1ccc(-c2cc(C(=O)N[C@H](C)c3ccc(F)cn3)cc(-c3ncccc3F)c2)nc1
- IC50 [1]: 8 µM

SMILES: CNCCC(Oc1ccc(C(F)(F)F)cc1)c1ccccc1 (stereo unspecified) [FLUOXETINE]
- IC50 [2]: 13.1 µM

SMILES: N[C@@H](Cn1cc(F)c(=O)[nH]c1=O)C(=O)O
- EC50 [3]: 1.5 µM
- Ratio EC50 (Rattus norvegicus [4]): 46

SMILES: N=C(N)NC(=O)c1nc(Cl)c(N)nc1N [AMILORIDE]
- IC50 [5]: 10 µM

SMILES: N[C@@H](Cn1cc(I)c(=O)[nH]c1=O)C(=O)O
- EC50 [6]: 0.14 µM
- Ratio EC50 (Rattus norvegicus [7]): 137

SMILES: N[C@@H](Cn1cc(Cl)c(=O)[nH]c1=O)C(=O)O
- EC50 [6]: 2 µM
- EC50 [3]: 2 µM

SMILES: CCOC(=O)C1=C(COCCN)NC(C)=C(C(=O)OC)C1c1ccccc1Cl (stereo unspecified) [AMLODIPINE]
- IC50 [8]: 0.4 µM

SMILES: N=c1n(Cc2ccccc2)c2ccccc2n1CC(O)CN1CCOCC1 (stereo unspecified)
- IC50 [9]: 24 µM

SMILES: CCN(CC)CC(=O)Nc1c(C)cccc1C [LIDOCAINE]
- IC50 [10]: 180 µM

SMILES: CCCC(=O)C1CCN(c2ncnc3c2CN(C(=O)c2ccc(-c4ccccc4)cc2)CC3)CC1
- IC50 [11]: 0.3 µM

SMILES: O=C(O)[C@@H]1C[C@H]2C[C@@H](CCc3nn[nH]n3)CC[C@H]2CN1 [TEZAMPANEL ANHYDROUS]
- IC50 [12]: 0.5 µM
- IC50 [13]: 0.5 µM

SMILES: CC(C)(C)c1s[nH]c(=O)c1C[C@H](N)C(=O)O
- EC50 [14]: 0.1 µM

SMILES: Cn1ncnc1COc1nn2c(-c3cc(F)ccc3F)nnc2cc1C(C)(C)C
- Activity [15]: 34%
- Ki [16]: 0.0007 µM
- Activity [17]: 36%
- Ki [18]: 0.0023 µM
- Ki [19]: 0.0007 µM
- Activity [20]: 39%

SMILES: CC(C)C1c2cc(C3CC3c3ccc4cc(C(=N)N)ccc4c3)ccc2CCN1C (stereo unspecified)
- IC50 [21]: 9.5 µM

SMILES: CCc1nnnn1-c1cc(C(=O)NC(C)c2cnccn2)cc(-c2ccc(C)cc2)c1 (stereo unspecified)
- IC50 [1]: 8 µM

SMILES: CCOC(=O)c1ncn2c1[C@@H]1CCCN1C(=O)c1cc(OC)ccc1-2
- Ki [22]: 0.049 µM
- Ki [16]: 0.025 µM
- Ki [18]: 0.00045 µM
- Ki [19]: 0.027 µM

SMILES: Cc1csc(-c2cc(-c3ccncc3)c3n(c2=O)CCCc2ccncc2-3)n1
- Activity [15]: 37%
- Ki [22]: 0.0013 µM
- Ki [16]: 0.0005 µM
- Ki [19]: 0.0006 µM

SMILES: Cc1nocc1C(=O)Nc1ccc(-c2ccccc2OC(F)(F)F)c(N)n1
- Ratio IC50 (Homo sapiens [23]): > 20
- Ratio IC50 (Homo sapiens [24]): > 20
- Ratio IC50 (Homo sapiens [25]): > 20

SMILES: Cc1cc(-c2nncc3c(C(C)(C)C)c(OCc4ncnn4C)nn23)no1
- Activity [15]: 4%
- Ki [22]: 0.0008 µM
- Ki [16]: 0.0008 µM
- Activity [26]: 23%
- Ki [18]: 0.0014 µM
- Ki [19]: 0.0008 µM
- Activity [20]: -15%

SMILES: O=c1ccc2c(OCCCCc3ccccc3)c3ccoc3cc2o1
- Ratio EC50 [27]: 17
- Ratio EC50 (Mus musculus [28]): 17
- Ratio EC50 [29]: 17
- Ratio EC50 (Mus musculus [30]): 17

SMILES: Cc1ccn(-c2nc(Nc3ccc(F)cc3)c3ncn(C)c3n2)n1
- EC50 [31]: 0.02 µM

SMILES: COc1ccc(CNCc2cccc3ccccc23)cc1
- IC50 [32]: 1.8 µM

SMILES: NCCC(Oc1ccc(C(F)(F)F)cc1)c1ccccc1 (stereo unspecified) [NORFLUOXETINE]
- IC50 [2]: 0.8 µM

SMILES: CN[C@@H](C)C/C=C/c1cncc(OC(C)C)c1 [ISPRONICLINE]
- EC50 [33]: 0.106 µM

SMILES: CC(C)NCCN(C(C)C)S(=O)(=O)c1ccc(Cl)cc1Cl
- IC50 [34]: 2.3 µM
